In publication PMC6615598, “Novel antibiotics effective against gram-positive and -negative multi-resistant bacteria with limited resistance” (PLoS Biology, 2019):
Like-named read-outs stand apart in the source and are kept apart here. Starred links: 1 amine or outer side, 2 acyl side, 3 side chain; linkers in the order of their positions; H or OH if unused. Non-standard residues stand in square brackets, D forms with d. Residues, ends and D or L forms follow the SMILES beside them. azaβ3(1Nal) = O=C(CN(Cc1cccc2ccccc12)N[*:1])[*:2]

Tests used:
[1] = tested on: A. baumanii 11896
Method: (§1) (10−4 M final concentrations). At selected time intervals, 100 μl of reaction mixture was collected, quenched by 200 μl 95% EtOH, and adjusted at pH 2 to prevent peptide adsorption to serum proteins. […] Supernatants were analyzed by RP-HPLC on an Xbridge C18 column with a linear gradient of water, 0.08% TFA, and acetonitrile with 1% TFA. HPLC peak areas were used to calculate the percentages of intact compound remaining at the various time points. MIC and MBC values were determined in triplicate in many ESKAPE clinical isolates, including a dozen MDR S. aureus, by the broth microdilution method. Peptidomimetics and antibiotics were assayed in a concentration range of 1 to 128 μM. The bacterial inoculum (5 × 10^5 colony-forming units [CFUs]/well) was prepared in MHB or CAMHB (150 μl). A Biotek Synergy 2 spectrophotometer was used to record the results after 18–20 h incubation at 35°C (±2°C). […] After every hour of culture for 4 h, serial dilutions were plated on BHI plates and incubated overnight at 37°C, and then the CFUs were counted and expressed as log CFU/ml. Phosphate-buffered saline (PBS)-exposed S. aureus MRSA was included as a control.

[2] = tested on: A. baumanii 7985
Method: as §1

[3] = tested on: E. faecium Aus0004
Method: as §1

[4] = tested on: Enterobacter cloacae ATCC13047; settings: ATCC13047
Method: as §1

[5] = tested on: Escherichia coli 066; settings: 066
Method: as §1

[6] = tested on: Escherichia coli 13090
Method: as §1

[7] = tested on: Escherichia coli 146; settings: 146
Method: as §1

[8] = tested on: Escherichia coli 283; settings: 283
Method: as §1

[9] = tested on: Escherichia coli 293; settings: 293
Method: as §1

[10] = tested on: Escherichia coli 444; settings: 444
Method: as §1

[11] = tested on: Escherichia coli 508
Method: as §1

[12] = tested on: Escherichia coli 750
Method: as §1

[13] = tested on: Escherichia coli 758; settings: 758
Method: as §1

[14] = tested on: Escherichia coli K12; settings: K12
Method: as §1

[15] = tested on: Escherichia coli MCR−1; settings: MCR−1
Method: as §1

[16] = tested on: Escherichia coli ML35P; settings: E. coli ML35P; broth microdilution; 3 independent experiments
Method: as §1

[17] = tested on: Escherichia coli PV; settings: PV
Method: as §1

[18] = tested on: K. pneumoniae 13825
Method: as §1

[19] = tested on: K. pneumoniae 13829; settings: 13829
Method: as §1

[20] = tested on: P. aeruginosa 15637; settings: 15637
Method: as §1

[21] = tested on: P. aeruginosa 15638
Method: as §1

[22] = tested on: P. aeruginosa 15641; settings: 15641
Method: as §1

[23] = tested on: P. aeruginosa 15643
Method: as §1

[24] = tested on: P. aeruginosa 15644
Method: as §1

[25] = tested on: P. aeruginosa PA14; settings: PA14
Method: as §1

[26] = Stability in human serum (half-life); assay type: in vitro ADME; settings: 25% human serum, pre-incubated 15 min at 37°C, peptide 10^−4 M, RP-HPLC peak areas, mean of biological triplicates
Method: as §1
(§2) Supplementary file pbio.3000337.s013.docx: S7 Table Peptide half-lives in human and mouse sera. […] Peptide amounts and half-lives were determined by HPLC. Experiments were conducted on 25% human or mouse sera. Values are shown in minutes. The mean values correspond to biological triplicates. HPLC, high pressure liquid chromatography. (DOCX) Click here for additional data file.

[27] = Stability in mouse serum (half-life); assay type: in vitro ADME; settings: 25% mouse serum, pre-incubated 15 min at 37°C, peptide 10^−4 M, RP-HPLC peak areas, mean of biological triplicates
Method: as §1, §2

[28] = tested on: MRSA; experiment: Mild sepsis mouse model, survival; assay type: in vivo; settings: mice, approximately 5 × 10^8 MRSA IV; single IV 1.5 mg.kg^−1 at 3 h or 15 h post infection; 14 d
Description: Tolerance and toxicity studies were done on male Swiss mice (CD-1 Crl: CD-1 [ICR] IGS; Charles River). These were 7 to 10 weeks old and weighed an average of 37.2 g. All experimental protocols were approved by the Adaptive Therapeutics Animal Care and Use Committee (APAFiS #4508-2016031l15541258 v2). For the sepsis model, we used female Swiss mice (Janvier Labs), 6 to 8 weeks old and weighing approximately 30 g. Experiments were monitored in the ARCHE-BIOSIT animal lab in Rennes, in biological duplicate. We used Groups of 5 mice for the mild and the severe sepsis models with MRSA. Mice were IV inoculated with 150 μl of MRSA suspensions in 0.9% NaCl containing approximately 5 × 10^8 CFUs for the “mild” sepsis and approximately 2 × 10^9 CFUs for the “severe” sepsis, respectively. […] Mice survival was monitored for 4 d (“severe” sepsis) or 14 d (“mild” sepsis), and the statistical significance of difference(s) between the groups was evaluated using the Wilcoxon test. P < 0.05 was considered significant. Two weeks (“mild” sepsis) or 4 d (“severe” sepsis) after inoculation, mice were euthanized with CO2.

Compound	MIC [1]	MIC [2]	MIC [4]	MIC [5]	MIC [7]	MIC [8]	MIC [9]	MIC [10]	MIC [13]	MIC [14]	MIC [15]	MIC [16]	MIC [17]	MIC [19]	MIC [20]	MIC [22]	MIC [25]	half-life [26]	half-life [27]	Survival in mild sepsis [28]	further results
CC(C)[C@@H]1NC(=O)[C@H](CCCNC(=N)N)NC(=O)[C@H](CCCNC(=N)N)NC(=O)[C@H](Cc2c[nH]c3ccccc23)NC(=O)[C@H](Cc2ccccc2)NC(=O)[C@H](Cc2ccccc2)NC(=O)[C@H](CCCCN)NC1=O [Pep18] (cyclo(FFWRRVK))	>128 µM	>128 µM	128 (131.2) μM	32 (32.8) μM	32 (32.8) μM	32 (32.8) μM	32 (32.8) μM	32 (32.8) μM	32 (32.8) μM	16 (16.4) μM	32 (32.8) μM	16 (16.4) μM	32 (32.8) μM	>128 µM	8 (8.2) μM	32 (32.8) μM	8 (8.2) μM	16.3 ± 1.67 h	8.5 ± 2.5 h	no effect	MIC ([3]; E. faecium Aus0004, broth microdilution, 3 independent experiments): 64 (65.6) μM; MIC ([6]; E. coli 13090, clinical strain, Caen hemoculture, broth microdilution, 3 independent experiments): 16 (16.4) μM; MIC ([11]; E. coli 508, clinical strain, Rennes urinary catheter, broth microdilution, 3 independent experiments): 64 (65.6) μM; MIC ([12]; E. coli 750, clinical strain, Rennes urinary catheter, broth microdilution, 3 independent experiments): 16 (16.4) μM; MIC ([18]; K. pneumoniae 13825, clinical strain, Caen hemoculture, broth microdilution, 3 independent experiments): 16 (16.4) μM; MIC ([21]; P. aeruginosa 15638, clinical strain, Caen hemoculture, broth microdilution, 3 independent experiments): 64 (65.6) μM; MIC ([23]; P. aeruginosa 15643, clinical strain, Caen hemoculture, broth microdilution, 3 independent experiments): 16 (16.4) μM; MIC ([24]; P. aeruginosa 15644, clinical strain, Caen hemoculture, broth microdilution, 3 independent experiments): 64 (65.6) μM
CC(C)[C@@H]1NC(=O)[C@H](CCCNC(=N)N)NC(=O)[C@H](CCCNC(=N)N)NC(=O)CN(Cc2cccc3ccccc23)NC(=O)[C@H](Cc2ccccc2)NC(=O)CN(Cc2cccc3ccccc23)NC(=O)[C@H](CCCCN)NC1=O [Pep19] (cyclo([azaβ3(1Nal)]F[azaβ3(1Nal)]RRVK))	8 (9) μM	8 (9) μM	16 (18) μM	8 (9) μM	8 (9) μM	8 (9) μM	16 (18) μM	8 (9) μM	8 (9) μM	4 (4.5) μM	16 (18) μM	4 (4.5) μM	8 (9) μM	>128 µM	8 (9) μM	16 (18) μM	8 (9) μM	24.2 ± 4.33 h	9 ± 1.75 h	survived better than those without treatment	MIC ([3]; Aus0004): 8 (9) μM; MIC [6]; 13090: 4 (4.5) μM; MIC [11]; 508: 8 (9) μM; MIC [12]; 750: 8 (9) μM; MIC [18]; 13825: 8 (9) μM; MIC [21]; 15638: 16 (18) μM; MIC [23]; 15643: 8 (9) μM; MIC [24]; 15644: 16 (18) μM
